According to publication PMC10447463, “Data-mining unveils structure–property–activity correlation of viral infectivity enhancing self-assembling peptides” (Nature Communications, 2023):
Like-named read-outs stand apart in the source and are kept apart here.

Experiments:
[1] = system: HIV-1 infection of TZM-bl cells; experiment: HIV-1 infectivity enhancement assay, β-galactosidase luminescence; type: cell-based; conditions: for Rel-EFC / Log10 Infection Rel EFC: 1.3 µM peptide; for Rel-EFC: infection relative to EF-C (QCKIKQIINMWQ = 1); for Log10 Infection Rel EFC: log10 of infection relative to EF-C; for Log Infectivity: Log10 infection relative to EF-C, asymmetric std dev errors; for Log10 Infection Rel EF-C: HIV-1 infection of TZM-bl cells; for Abs. Inf.: β-galactosidase luminescence; for Log10 of Rel to EFC (Feb2021): Log10 of infection relative to EF-C; for Log10 Inf. rel. to EF-C: log10 of HIV-1 infection of TZM-bl cells relative to EF-C (EF-C = 0)
[2] = Conversion rate (CR) assay with fluorescamine; type: physicochemical; set-up: key to CR: % = 100−100×filtrate/original fluorescence intensity; conditions: conversion rate, fluorescamine assay; for CR / %: Fig. S7 panel B
Summary of the method: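 β-sheet content came from ATR FT-IR spectra of lyophilized 1 mg/mL nanofibril solution (64 scans, 2 cm^-1 resolution). Conversion was measured by separating free monomer with a 3 kDa cutoff filter, then comparing fluorescamine fluorescence (ex 365/em 470 nm, 20 min RT) of filtrate versus unfiltered sample, in triplicate.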

[3] = type: physicochemical; conditions: for ThT Cat. / ThT-Fluorescence (categorical): ThT-active if fluorescence at least twice the control
Summary of the method: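 Preformed peptide fibrils (1 mg/mL) mixed with 50 µM ThT in PBS, 15 min at RT, fluorescence ex 440/em 488 nm versus PBS blank, triplicates. Zeta potential: peptides at 1 mg/mL in PBS pH 7.4, aged 1 d at RT, diluted in 1 mM KCl, Smoluchowski from electrophoretic mobility.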

[4] = Fig. S7 panel A (plotted against β-sheet content), TZM-bl cells
[5] = Fig. S7 panel B (plotted against CR), rounded to two decimals, TZM-bl cells
[6] = Log10 of infection rate relative to EF-C, Figure 3A source data
[7] = infection rate relative to EF-C, log10, data of Figure 2D
[8] = infection rate relative to EF-C, log10, source data of Figure 2C
[9] = ThT fluorescence category, 1 if Rel. ThT >2
[10] = absolute infection signal, HIV-1 on TZM-bl cells

Substance	Rel-EFC [1]	Log10 Infection Rel EFC [1]	Log Infectivity [1, 4]	Log Infectivity [1, 5]	Log10 Infection Rel EF-C [1, 6]	Log10 Infection Rel EF-C [1, 7]	Log10 Infection Rel EF-C [1, 8]	CR / % [2]	CR [2]	Tht category (> 2 to blank = +) ([3]; Fig S10 panel D)	ThT Cat. ([3]; Fig S10 panel E)	Tht category (> 2 to blank = +) ([3]; FigS12 panel A)	ThT Cat, ([3]; FigS12 panel B)	ThT Cat, ([3]; ThT category, 1 if Rel. ThT >2)	ThT Cat. ([3]; ThT category, 1 if Rel. ThT >2)	ThT Cat. / ThT-Fluorescence (categorical) [3]	ThT Cat. [3, 9]	Log10 of Rel to EFC (Feb2021) ([1]; all peptides of FigS16)	also measured
CKIW	0,05	-1,29	-1.286	-1.29	-1.29	-1.286	-1.286	48.3%	48.26	0 (ThT-inactive (N-Fold <2))	0 (ThT-inactive (N-Fold <2))	0 (ThT-inactive (N-Fold <2))	0 (ThT-inactive (N-Fold <2))	0 (ThT-inactive (N-Fold <2))	0 (ThT-inactive (N-Fold <2))	0 (ThT-inactive (N-Fold <2))	–	–	Abs. Inf. ([1]; absolute HIV-1 infection signal, TZM-bl cells): 290
CKAKAQA	0,03	-1,5	-1.501	-1.5	-1.5	-1.501	-1.501	44%	44	0 (ThT-inactive (N-Fold <2))	0 (ThT-inactive (N-Fold <2))	0 (ThT-inactive (N-Fold <2))	0 (ThT-inactive (N-Fold <2))	0 (ThT-inactive (N-Fold <2))	–	0 (ThT-inactive (N-Fold <2))	0 (ThT-inactive (N-Fold <2))	–	–
HHHHKIKIKIKIWWWW	0,38	-0,42	-0.4216	-0.42	-0.42	-0.4216	-0.4216	96%	96	1 (ThT. Cat is 1, if Rel. ThT >2)	1 (ThT. Cat is 1, if Rel. ThT >2)	–	–	1 (ThT. Cat is 1, if Rel. ThT >2)	–	1 (ThT. Cat is 1, if Rel. ThT >2)	1 (ThT. Cat is 1, if Rel. ThT >2)	-0.42	Log10 of Rel to EFC (Feb2021) ([1]; second listing, peptides with TEM 2cat 0): -0.42
KFKFQFFF	0,4	-0,39	-0.3936	-0.39	-0.39	-0.3936	-0.3936	98.5%	98.46	1 (ThT. Cat is 1, if Rel. ThT >2)	1 (ThT. Cat is 1, if Rel. ThT >2)	–	–	1 (ThT. Cat is 1, if Rel. ThT >2)	–	1 (ThT. Cat is 1, if Rel. ThT >2)	1 (ThT. Cat is 1, if Rel. ThT >2)	-0.39	–
CKFKQFF	0,01	-2,17	-2.171	-2.17	-2.17	-2.171	-2.171	90%	90.05	0 (ThT-inactive (N-Fold <2))	0 (ThT-inactive (N-Fold <2))	0 (ThT-inactive (N-Fold <2))	0 (ThT-inactive (N-Fold <2))	0 (ThT-inactive (N-Fold <2))	0 (ThT-inactive (N-Fold <2))	0 (ThT-inactive (N-Fold <2))	–	–	Abs. Inf. [1, 10]: 260; Log10 Inf. rel. to EF-C [1]: -2.171; Abs. Infection at 0.26 µM ([1]; peptide 0.26 µM, mean of n = 3, Figure 4A): 366.7; Infect 1 0.26 µM ([1]; peptide 0.26 µM, replicate 1, absolute infection signal, Figure 4A): 260; Infect 2 0.26 µM ([1]; peptide 0.26 µM, replicate 2, absolute infection signal, Figure 4A): 50; Infect 3 0.26 µM ([1]; peptide 0.26 µM, replicate 3, absolute infection signal, Figure 4A): 790; Abs. Infection at 1.3 µM ([1]; peptide 1.3 µM, mean of n = 3, Figure 4A): 260; Infect 1 .3 µM ([1]; peptide 1.3 µM, replicate 1, absolute infection signal, Figure 4A): 440; Infect 2 1.3µM ([1]; peptide 1.3 µM, replicate 2, absolute infection signal, Figure 4A): 160; Infect 3 1.3 µM ([1]; peptide 1.3 µM, replicate 3, absolute infection signal, Figure 4A): 180
KIKIQIC	0,61	-0,22	-0.2164	-0.22	-0.22	-0.2164	-0.2164	51.5%	51.55	1 (ThT. Cat is 1, if Rel. ThT >2)	1 (ThT. Cat is 1, if Rel. ThT >2)	–	–	1 (ThT. Cat is 1, if Rel. ThT >2)	–	1 (ThT. Cat is 1, if Rel. ThT >2)	1 (ThT. Cat is 1, if Rel. ThT >2)	-0.22	Infection RLU/s, 1.3 µm abs ([1]; peptide 1.3 µm (so in the source), mean of the 3 replicates): 9447 RLU/s
QCKFKQFFNM	0,43	-0,37	-0.3706	-0.37	-0.37	-0.3706	-0.3706	98.7%	98.67	1 (ThT. Cat is 1, if Rel. ThT >2)	1 (ThT. Cat is 1, if Rel. ThT >2)	–	–	1 (ThT. Cat is 1, if Rel. ThT >2)	1 (ThT. Cat is 1, if Rel. ThT >2)	1 (ThT. Cat is 1, if Rel. ThT >2)	–	-0.37	Abs. Inf. [1, 10]: 5847; Log10 Inf. rel. to EF-C [1]: -0.3706
CEIEIQINMWQ	0,22	-0,66	-0.6602	-0.66	-0.66	-0.6602	-0.6602	67%	66.95	1 (ThT. Cat is 1, if Rel. ThT >2)	1 (ThT. Cat is 1, if Rel. ThT >2)	–	–	1 (ThT. Cat is 1, if Rel. ThT >2)	–	1 (ThT. Cat is 1, if Rel. ThT >2)	1 (ThT. Cat is 1, if Rel. ThT >2)	-0.66	–
